In the first test the target is T1, MCR-1 (Homo sapiens, UniProt Q01726).
T1 construct: expressed in transfected cells; host or cells: HEK 293
T1 sequence (Q01726 whole entry): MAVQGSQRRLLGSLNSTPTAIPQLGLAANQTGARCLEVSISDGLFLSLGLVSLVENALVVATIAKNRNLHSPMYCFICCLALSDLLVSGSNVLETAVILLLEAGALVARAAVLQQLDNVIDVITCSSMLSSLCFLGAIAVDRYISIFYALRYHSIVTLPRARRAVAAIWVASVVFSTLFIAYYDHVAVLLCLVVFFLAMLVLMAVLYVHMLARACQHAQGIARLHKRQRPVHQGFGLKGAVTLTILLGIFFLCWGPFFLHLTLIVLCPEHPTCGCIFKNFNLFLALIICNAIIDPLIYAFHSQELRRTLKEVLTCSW
In words: Melanocortin receptor binding assay, competition with 125I-HP 467, HEK 293 cells expressing hMCR-1. Particulars: competition with 125I-HP 467, HEK 293 cells expressing MCR-1; read-out: MC-1 IC50. The method in brief:
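Intact-cell competition binding, 2.5 hr at 37 °C, in PBS/10% calf serum/1 mM CaCl2; hMCR-4 cells at 4×10^3 per tube, hMCR-1 cells at 2×10^4 per tube. Filtration on BSA/CaCl2-soaked GF/B, cold 50 mM Tris pH 7.4 washes, scintillation count.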
For orientation: IC50 means the concentration that inhibits the measured activity by half. As for `CCNc1ccc(C2C(CN)c3ccccc3CN2CCCCC(CN)NCCC2CCCCC2)cc1` (stereo not drawn) [TRG 2411-70], the IC50 turned out to be 160 nM.

As for `CCNc1ccc(C2C(CN)c3ccccc3CN2CCCCC(CN)NCCN)cc1` (stereo not drawn) [TRG 2411-71], the IC50 is 390 nM. Same read-out and setting: the figure for `CCCCNc1ccc(C2C(CNCCc3ccccc3)c3ccccc3CN2CCCCC(N)CN)cc1` (stereo not drawn) [TRG 2411-72] is 250 nM. On the same count and under the same terms, for `CCCCNc1ccc(C2C(CNCCc3ccccc3)c3ccccc3CN2CCCCC(CN)NC)cc1` (stereo not drawn) [TRG 2411-73] the value was 190 nM. Same read-out and setting: the figure for `CCCCNc1ccc(C2C(CNCCc3ccccc3)c3ccccc3CN2CCCCC(CN)NCCN)cc1` (stereo not drawn) [TRG 2411-85] is 310 nM; for `CCCCNc1ccc(C2C(CNC3CCCCC3)c3ccccc3CN2CCCCC(CN)N2CCCC2)cc1` (stereo not drawn) [TRG 2411-89] it is 60 nM. `CCCCNc1ccc(C2C(CNC3CCCCC3)c3ccccc3CN2CCCCC(CN)NCCc2ccc(Br)cc2)cc1` (stereo not drawn) [TRG 2411-91]: the IC50 worked out at 640 nM.

For the compound `CCCCNc1ccc(C2C(CNC3CCCCC3)c3ccccc3CN2CCCCC(CN)NCCc2ccc(OC)cc2)cc1` (stereo not drawn) [TRG 2411-92], the half-inhibitory concentration (IC50) came to 300 nM.

Turning to `CCCCNc1ccc(C2C(CNC3CCCCC3)c3ccccc3CN2CCCCC(CN)NCc2ccccc2)cc1` (stereo not drawn) [TRG 2411-93], the IC50 stood at 130 nM. On the same count and under the same terms, the figure for `CCCCNc1ccc(C2C(CN)c3ccccc3CN2CCCCC(CN)NC)cc1` (stereo not drawn) [TRG 2411-100] is 130 nM; for `CCCCNc1ccc(C2C(CN)c3ccccc3CN2CCCCC(CN)NCC)cc1` (stereo not drawn) [TRG 2411-101] it is 100 nM; for `CCCCNc1ccc(C2C(CN)c3ccccc3CN2CCCCC(CN)N2CCCC2)cc1` (stereo not drawn) [TRG 2411-103] it is 20 nM. Same read-out and setting: for `CCCCNc1ccc(C2C(CN)c3ccccc3CN2CCCCC(CN)NCCc2ccc(OC)cc2)cc1` (stereo not drawn) [TRG 2411-106] the value was 370 nM; for `CCCCNc1ccc(C2C(CN)c3ccccc3CN2CCCCC(CN)NCc2ccccc2)cc1` (stereo not drawn) [TRG 2411-107], 340 nM. Still for that read-out and setting: the figure for `NC[C@@H](N)CCCN1Cc2ccccc2C(CNCCc2ccccc2)C1c1ccc(-c2ccccc2)cc1` (stereo partly drawn) [TRG 2411-113] is 500 nM; for `CNC(CN)CCCN1Cc2ccccc2C(CNCCc2ccccc2)C1c1ccc(-c2ccccc2)cc1` (stereo not drawn) [TRG 2411-114] it is 760 nM. Turning to `CNCCNC(CN)CCCN1Cc2ccccc2C(CNCCc2ccccc2)C1c1ccc(-c2ccccc2)cc1` (stereo not drawn) [TRG 2411-117], the IC50 is 970 nM.

With `NCCNC(CN)CCCN1Cc2ccccc2C(CNCCc2ccccc2)C1c1ccc(-c2ccccc2)cc1` (stereo not drawn) [TRG 2411-118], the IC50 amounted to 350 nM. Same read-out and setting: for `CNC(C)CNC(CN)CCCN1Cc2ccccc2C(CNCCc2ccccc2)C1c1ccc(-c2ccccc2)cc1` (stereo not drawn) [TRG 2411-119] the value was 370 nM; for `NCC(CCCN1Cc2ccccc2C(CNCCc2ccccc2)C1c1ccc(-c2ccccc2)cc1)NCCO` (stereo not drawn) [TRG 2411-120], 1700 nM.

In the case of `CNC(CNC(CN)CCCN1Cc2ccccc2C(CNCCc2ccccc2)C1c1ccc(-c2ccccc2)cc1)Cc1ccccc1` (stereo not drawn) [TRG 2411-121], the IC50 was 1070 nM.

As to `COCCNC(CN)CCCN1Cc2ccccc2C(CNCCc2ccccc2)C1c1ccc(-c2ccccc2)cc1` (stereo not drawn) [TRG 2411-123], the IC50 stood at 1540 nM. Regarding `CCCCNC(CN)CCCN1Cc2ccccc2C(CNCCc2ccccc2)C1c1ccc(-c2ccccc2)cc1` (stereo not drawn) [TRG 2411-124], the IC50 came out at 1540 nM. Still for that read-out and setting: for `NCC(CCCN1Cc2ccccc2C(CNCCc2ccccc2)C1c1ccc(-c2ccccc2)cc1)NCC1CCCCC1` (stereo not drawn) [TRG 2411-125] the value was 820 nM; for `CCNC(CN)CCCN1Cc2ccccc2C(CNC2CCCCC2)C1c1ccc(-c2ccccc2)cc1` (stereo not drawn) [TRG 2411-127], 1480 nM. Same read-out and setting: the figure for `CNC(C)CNC(CN)CCCN1Cc2ccccc2C(CNC2CCCCC2)C1c1ccc(-c2ccccc2)cc1` (stereo not drawn) [TRG 2411-128] is 1570 nM. Consider `CNC(CNC(CN)CCCN1Cc2ccccc2C(CNC2CCCCC2)C1c1ccc(-c2ccccc2)cc1)Cc1ccccc1` (stereo not drawn) [TRG 2411-130], for which the IC50 came out at 920 nM. Still for that read-out and setting: for `NCC(CCCN1Cc2ccccc2C(CNC2CCCCC2)C1c1ccc(-c2ccccc2)cc1)N1CCCC1` (stereo not drawn) [TRG 2411-131] the value was 230 nM; for `NCC(CCCN1Cc2ccccc2C(CNC2CCCCC2)C1c1ccc(-c2ccccc2)cc1)NCC1CCCCC1` (stereo not drawn) [TRG 2411-134], 1480 nM; for `NCC(CCCN1Cc2ccccc2C(CNC2CCCCC2)C1c1ccc(-c2ccccc2)cc1)NCc1ccccc1` (stereo not drawn) [TRG 2411-135], 1980 nM. The same measure, in the same setting: the figure for `CNC(CN)CCCN1Cc2ccccc2C(CN)C1c1ccc(-c2ccccc2)cc1` (stereo not drawn) [TRG 2411-137] is 1620 nM. As for `CCNC(CN)CCCN1Cc2ccccc2C(CN)C1c1ccc(-c2ccccc2)cc1` (stereo not drawn) [TRG 2411-138], the IC50 turned out to be 1270 nM. Turning to `NCC(CCCN1Cc2ccccc2C(CN)C1c1ccc(-c2ccccc2)cc1)NCCc1ccccc1` (stereo not drawn) [TRG 2411-139], the IC50 came to 1460 nM. The same measure, in the same setting: for `CNCCNC(CN)CCCN1Cc2ccccc2C(CN)C1c1ccc(-c2ccccc2)cc1` (stereo not drawn) [TRG 2411-140] the value was 1360 nM; for `NCCNC(CN)CCCN1Cc2ccccc2C(CN)C1c1ccc(-c2ccccc2)cc1` (stereo not drawn) [TRG 2411-141], 1150 nM. Still for that read-out and setting: the figure for `CNC(CNC(CN)CCCN1Cc2ccccc2C(CN)C1c1ccc(-c2ccccc2)cc1)Cc1ccccc1` (stereo not drawn) [TRG 2411-144] is 1220 nM.

Staying with this test, now noted: inhibition of binding of 125I-HP 467, HEK 293 cells expressing MCR-1; read-out: MC-1 IC50.
Take `CCNc1ccc(C2C(CNCCc3ccccc3)c3ccccc3CN2CCCC(CN)NCCN)cc1` (stereo not drawn) [TRG 2411-163]: the IC50 is 220 nM.

On to `CCCCNC(CN)CCCN1Cc2ccccc2C(CNC2CCCCC2)C1c1ccc(NCC)cc1` (stereo not drawn) [TRG 2411-165], for which the 50% inhibitory concentration (IC50) was found to be 90 nM. Same read-out and setting: the figure for `CCNc1ccc(C2C(CNC3CCCCC3)c3ccccc3CN2CCCC(CN)N2CCCC2)cc1` (stereo not drawn) [TRG 2411-166] is 40 nM; for `CCNc1ccc(C2C(CNC3CCCCC3)c3ccccc3CN2CCCC(CN)NCCc2ccc(OC)cc2)cc1` (stereo not drawn) [TRG 2411-168] it is 230 nM. The same measure, in the same setting: the figure for `CCNc1ccc(C2C(CNC3CCCCC3)c3ccccc3CN2CCCC(CN)NCc2ccc(Cl)cc2)cc1` (stereo not drawn) [TRG 2411-170] is 130 nM.

On to `CCNc1ccc(C2C(CNC3CCCCC3)c3ccccc3CN2CCCC(CN)NCc2ccc(OC)cc2)cc1` (stereo not drawn) [TRG 2411-171], for which the IC50 turned out to be 150 nM.

Turning to `CCNc1ccc(C2C(CNC3CCCCC3)c3ccccc3CN2CCCC(CN)NCCc2ccc3ccccc3c2)cc1` (stereo not drawn) [TRG 2411-172], the IC50 came out at 220 nM.

Consider `CCNc1ccc(C2C(CN)c3ccccc3CN2CCCC(CN)NC)cc1` (stereo not drawn) [TRG 2411-175], for which the half-maximal inhibitory concentration (IC50) amounted to 290 nM. As to `CCCCNC(CN)CCCN1Cc2ccccc2C(CN)C1c1ccc(NCC)cc1` (stereo not drawn) [TRG 2411-177], the 50% inhibitory concentration (IC50) came out at 110 nM. As for `CCNc1ccc(C2C(CN)c3ccccc3CN2CCCC(CN)NCCc2ccc(OC)cc2)cc1` (stereo not drawn) [TRG 2411-181], the half-inhibitory concentration (IC50) is 110 nM. For `CCNc1ccc(C2C(CN)c3ccccc3CN2CCCC(CN)NCc2ccccc2)cc1` (stereo not drawn) [TRG 2411-182], the IC50 is 200 nM.

`CCNc1ccc(C2C(CN)c3ccccc3CN2CCCC(CN)NCc2ccc(Cl)cc2)cc1` (stereo not drawn) [TRG 2411-183]: the IC50 was found to be 130 nM.

Regarding `CCNc1ccc(C2C(CN)c3ccccc3CN2CCCC(CN)NCCN)cc1` (stereo not drawn) [TRG 2411-187], the IC50 is 60 nM.

For the compound `CCCCNc1ccc(C2C(CNCCc3ccccc3)c3ccccc3CN2CCCC(N)CN)cc1` (stereo not drawn) [TRG 2411-188], the IC50 was determined as 130 nM.

As to `CCCCNc1ccc(C2C(CNCCc3ccccc3)c3ccccc3CN2CCCC(CN)NC)cc1` (stereo not drawn) [TRG 2411-189], the IC50 is 120 nM. With `CCCCNc1ccc(C2C(CNCCc3ccccc3)c3ccccc3CN2CCCC(CN)NCc2ccc(Cl)cc2)cc1` (stereo not drawn) [TRG 2411-197], the IC50 turned out to be 80 nM. Same read-out and setting: the figure for `CCCCNc1ccc(C2C(CNCCc3ccccc3)c3ccccc3CN2CCCC(CN)NCc2ccc(OC)cc2)cc1` (stereo not drawn) [TRG 2411-198] is 120 nM; for `CCCCNc1ccc(C2C(CNCCc3ccccc3)c3ccccc3CN2CCCC(CN)NCCc2ccc3ccccc3c2)cc1` (stereo not drawn) [TRG 2411-199] it is 170 nM; for `CCCCNc1ccc(C2C(CNCCc3ccccc3)c3ccccc3CN2CCCC(CN)NCCN)cc1` (stereo not drawn) [TRG 2411-201] it is 300 nM. Regarding `CCCCNc1ccc(C2C(CNC3CCCCC3)c3ccccc3CN2CCCC(N)CN)cc1` (stereo not drawn) [TRG 2411-202], the IC50 was found to be 220 nM.

Regarding `CCCCNc1ccc(C2C(CNC3CCCCC3)c3ccccc3CN2CCC[C@@H](CN)NC)cc1` (stereo partly drawn) [TRG 2411-203], the IC50 turned out to be 170 nM. Same read-out and setting: for `CCCCNc1ccc(C2C(CNC3CCCCC3)c3ccccc3CN2CCCC(CN)NCC)cc1` (stereo not drawn) [TRG 2411-204] the value was 150 nM; for `CCCCNc1ccc(C2C(CNC3CCCCC3)c3ccccc3CN2CCCC(CN)NCCCC)cc1` (stereo not drawn) [TRG 2411-205], 250 nM. Still for that read-out and setting: the figure for `CCCCNc1ccc(C2C(CNC3CCCCC3)c3ccccc3CN2CCCC(CN)NCCc2ccccc2)cc1` (stereo not drawn) [TRG 2411-207] is 190 nM. The same measure, in the same setting: for `CCCCNc1ccc(C2C(CNC3CCCCC3)c3ccccc3CN2CCCC(CN)NCc2ccc(Cl)cc2)cc1` (stereo not drawn) [TRG 2411-211] the value was 100 nM; for `CCCCNc1ccc(C2C(CNC3CCCCC3)c3ccccc3CN2CCCC(CN)NCCC2CCCCC2)cc1` (stereo not drawn) [TRG 2411-214], 80 nM. `CCCCNc1ccc(C2C(CN)c3ccccc3CN2CCCC(N)CN)cc1` (stereo not drawn) [TRG 2411-216]: the IC50 was found to be 110 nM. `CCCCNc1ccc(C2C(CN)c3ccccc3CN2CCCC(CN)NC)cc1` (stereo not drawn) [TRG 2411-217]: the IC50 turned out to be 90 nM. The same measure, in the same setting: for `CCCCCNc1ccc(C2C(CNCCc3ccccc3)c3ccccc3CN2CCCCC(CN)NC)cc1` (stereo not drawn) [TRG 2412-1] the value was 380 nM; for `CCCCCNc1ccc(C2C(CNCCc3ccccc3)c3ccccc3CN2CCCCC(CN)NCCc2ccccc2)cc1` (stereo not drawn) [TRG 2412-2], 470 nM; for `CCCCCNc1ccc(C2C(CNCCc3ccccc3)c3ccccc3CN2CCCCC(CN)NCc2ccccc2)cc1` (stereo not drawn) [TRG 2412-3], 360 nM. Same read-out and setting: the figure for `CCOc1ccc(C2C(CNCCc3ccccc3)c3ccccc3CN2CCCCC(CN)NCCc2ccccc2)cc1` (stereo not drawn) [TRG 2412-5] is 490 nM.

`CCOc1ccc(C2C(CNCCc3ccccc3)c3ccccc3CN2CCCCC(CN)NCc2ccccc2)cc1` (stereo not drawn) [TRG 2412-6]: the IC50 is 590 nM.

These data come from patent US6608082B1, “Treatment of erectile dysfunction using isoquinoline compound melanocortin receptor ligands” (Lion Bioscience AG, priority 1998, dated 2003).
